Experimental data: patent US20150246025A1, “2-PHENYL-5-HETEROCYCLYL-TETRAHYDRO-2H-PYRAN-3-AMINE COMPOUNDS FOR USE IN THE TREATMENT OF DIABETES AND ITS ASSOCIATED DISORDERS” (CADILA HEALTHCARE LIMITED, priority 2012, published 2015)

What was measured:
C57BL/6J mice = test: In vivo antihyperglycaemic/antidiabetic activity (OGTT), acute single dose 120-min time-course; details: Mus musculus, 2 h; male C57BL/6J mice, acute single dose 0,3 mg/kg po, 120-min time-course, n = 6, Mean ± SEM; read-out: In vivo OGTT C57; % Glucose change
Description: Acute single dose 120-min time-course experiments were carried out in male C57BL/6J mice, age 8-12 weeks, bred in-house. Animals were housed in groups of 6 animals per cage, for a week, in order to habituate them to vivarium conditions (25±4° C., 60-65% relative humidity, 12: 12 h light: dark cycle, with lights on at 7.30 am). All the animal experiments were carried out according to the internationally valid guidelines following approval by the ‘Zydus Research Center animal ethical committee’.
The in-vivo glucose lowering properties of the test compounds were evaluated in C57BL/6J (mild hyperglycemic) animal models as described below. Two days prior to the study, the animals were randomized and divided into groups (n=6), based upon their fed glucose levels. On the day of experiment, food was withdrawn from all the cages, water was given ad-libitum and were kept for overnight fasting. Vehicle (normal saline)/test compounds were administered orally, on a body weight basis. Soon after the 0 min. blood collection from each animal, the subsequent blood collections were done at 30, 60 and 120 or upto 240 min., via retro-orbital route, under light ether anesthesia (Diabetes Obesity Metabolism, 7, 307, 2005; Diabetes, 52, 751, 2003).
Blood samples were centrifuged and the separated serum was immediately subjected for the glucose estimation. Serum for insulin estimation was stored at −70° C. until used for the insulin estimation. The glucose estimation was carried out with DPEC-GOD/POD method (Ranbaxy Fine Chemicals Limited, Diagnostic division, India), using Spectramax-190, in 96-microwell plate reader (Molecular devices Corporation, Sunnyvale, Calif.). […] The AUC and BCAUC obtained from graphs were analyzed for one way ANOVA, followed by Dunnett's post test, using Graph Pad prism software.

DPP-IV enzyme = target: T1, DPP-IV enzyme (Homo sapiens, UniProt P27487); test: In vitro DPP-IV inhibitory activity using enzymatic (fluorescence-based) assay; type: biochemical; details: soluble human DPP-IV, H-Gly-Pro-AMC 200 μM, pH 7.8, 25° C., 30 min; read-out: % In-vitro DPPIV Inhibition IC50
T1 construct: soluble human proteins (DPP-IV enzyme) produced in a baculovirus expression system; made in house; host or cells: baculovirus expression system (Life Technologies)
Description: In Vitro DPP-IV Inhibitory Activity Using Enzymatic Assay:
In vitro enzyme (DPP-IV) inhibitory activity was determined using fluorescence-based assay (Anal. Biochem., 200, 352, 1992). The Gly-Pro-AMC was used as a substrate (which is cleaved by the enzymes to release the fluorescent AMC) and soluble human proteins (DPP-IV enzyme) produced in a baculovirus expression system (Life Technologies) was used as the enzyme source. The H-Gly-Pro-AMC (200 μM) was incubated with DPP-IV enzyme in the presence of various concentrations (30 & 100 nM) of test compounds. Reaction was carried out at pH 7.8 (HEPES buffer 25 mM containing 1.0% BSA, 140 mM NaCl, 16 mM MgCl2, 2.8% DMSO) in a total volume of 100 μl at 25° C. for 30 min., in the dark. Reaction was terminated with acetic acid (25 μl of 25% solution). Activity (fluorescence) was measured using Spectra Max fluorometer (Molecular Devices, Sunnyvale Calif.) by exciting at 380 nm and emission at 460 nm.

T1 sequence (P27487 39-766 limits assumed): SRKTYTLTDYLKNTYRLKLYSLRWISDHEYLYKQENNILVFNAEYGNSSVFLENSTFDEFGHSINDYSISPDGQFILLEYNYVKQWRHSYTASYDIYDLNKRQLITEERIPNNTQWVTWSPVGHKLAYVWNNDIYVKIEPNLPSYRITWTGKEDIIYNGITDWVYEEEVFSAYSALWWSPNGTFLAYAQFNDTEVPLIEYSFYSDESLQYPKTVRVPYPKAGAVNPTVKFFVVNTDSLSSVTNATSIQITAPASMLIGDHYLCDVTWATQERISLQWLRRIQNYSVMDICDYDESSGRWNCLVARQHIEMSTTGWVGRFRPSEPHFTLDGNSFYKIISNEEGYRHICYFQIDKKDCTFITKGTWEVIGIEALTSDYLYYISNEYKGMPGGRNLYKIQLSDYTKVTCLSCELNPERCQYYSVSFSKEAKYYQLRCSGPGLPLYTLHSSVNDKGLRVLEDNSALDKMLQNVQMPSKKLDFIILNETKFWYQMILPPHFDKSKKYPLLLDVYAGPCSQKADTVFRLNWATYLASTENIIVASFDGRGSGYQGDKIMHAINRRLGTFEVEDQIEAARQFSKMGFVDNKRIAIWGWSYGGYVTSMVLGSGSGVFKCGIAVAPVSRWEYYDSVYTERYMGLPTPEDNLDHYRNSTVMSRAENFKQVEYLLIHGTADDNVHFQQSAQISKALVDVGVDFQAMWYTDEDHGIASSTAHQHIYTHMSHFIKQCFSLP

| Compound | change in vivo at 0.3 mg/kg (C57BL/6J mice) [%] | IC50 (DPP-IV enzyme) [µM] |
| --- | --- | --- |
| N[C@H]1C[C@@H](N2CC3=C(CN(C(=O)C4CCCC4)C3)C2)CO[C@@H]1c1cc(F)ccc1F [Compound 25, (5-((3R,5S,6R)-5-amino-6-(2,5-difluorophenyl)tetrahydro-2H-pyran-3-yl)-5,6-dihydropyrrolo[3,4-c]pyrrol-2(1H,3H,4H)-yl)(cyclopentyl)methanone] | -12.2 ± 2.5 | < 0.03 |
| N[C@H]1C[C@@H](N2CC3=C(CN(C(=O)C4CCCCC4)C3)C2)CO[C@@H]1c1cc(F)ccc1F [Compound 26, (5-((3R,5S,6R)-5-amino-6-(2,5-difluorophenyl)tetrahydro-2H-pyran-3-yl)-5,6-dihydropyrrolo[3,4-c]pyrrol-2(1H,3H,4H)-yl)(cyclohexyl)methanone] | -20.1 ± 1.4 | < 0.03 |
| COC(=O)N1CC2=C(C1)CN([C@H]1CO[C@H](c3cc(F)ccc3F)[C@@H](N)C1)C2 [Compound 27, (2R,3S,5R)-2-(2,5-difluorophenyl)-5-(5-(methoxycarbonyl)-5,6-dihydropyrrolo-[3,4-c]pyrrol-2(1H,3H,4H)-yl)tetrahydro-2H-pyran-3-amine] | -13.7 ± 1.2 | < 0.01 |
| CCOC(=O)N1CC2=C(C1)CN([C@H]1CO[C@H](c3cc(F)ccc3F)[C@@H](N)C1)C2 [Compound 28, (2R,3S,5R)-2-(2,5-difluorophenyl)-5-(5-(ethoxycarbonyl)-5,6-dihydropyrrolo[3,4-c]pyrrol-2(1H,3H,4H)-yl)tetrahydro-2H-pyran-3-amine] | -35 ± 6.1 | < 0.01 |
| N[C@H]1C[C@@H](N2CC3=C(C2)CN(S(=O)(=O)C(F)(F)F)C3)CO[C@@H]1c1cc(F)ccc1F [Compound 29, (2R,3S,5R)-2-(2,5-difluorophenyl)-5-(5-((trifluoromethyl)sulfonyl)-5,6-dihydropyrrolo[3,4-c]pyrrol-2(1H,3H,4H)-yl)tetrahydro-2H-pyran-3-amine] | -27.7 ± 3.1 | < 0.03 |
| CCS(=O)(=O)N1CC2=C(CN([C@H]3CO[C@H](c4cc(F)ccc4F)[C@@H](N)C3)C2)C1 [Compound 30, (2R,3S,5R)-2-(2,5-difluorophenyl)-5-(5-(ethylsulfonyl)-5,6-dihydropyrrolo[3,4-c]pyrrol-2(1H,3H,4H)-yl)tetrahydro-2H-pyran-3-amine] | -35 ± 1.4 | < 0.01 |
| CC(C)S(=O)(=O)N1CC2=C(CN([C@H]3CO[C@H](c4cc(F)ccc4F)[C@@H](N)C3)C2)C1 [Compound 31, (2R,3S,5R)-2-(2,5-difluorophenyl)-5-(5-(isopropylsulfonyl)-5,6-dihydropyrrolo[3,4-c]pyrrol-2(1H,3H,4H)-yl)tetrahydro-2H-pyran-3-amine] | -28.1 ± 3.2 | < 0.01 |
| N[C@H]1C[C@@H](N2CC3=C(C2)CN(S(=O)(=O)c2ccccc2)C3)CO[C@@H]1c1cc(F)ccc1F [Compound 32, (2R,3S,5R)-2-(2,5-difluorophenyl)-5-(5-(phenylsulfonyl)-5,6-dihydropyrrolo[3,4-c]pyrrol-2(1H,3H,4H)-yl)tetrahydro-2H-pyran-3-amine] | -25.3 ± 3.9 | < 0.01 |
| N[C@H]1C[C@@H](N2CC3=C(C2)CN(S(=O)(=O)c2ccc(F)cc2)C3)CO[C@@H]1c1cc(F)ccc1F [Compound 33, (2R,3S,5R)-2-(2,5-difluorophenyl)-5-(5-((4-fluorophenyl)sulfonyl)-5,6-dihydropyrrolo[3,4-c]pyrrol-2 (1H,3H,4H)-yl)tetrahydro-2H-pyran-3-amine] | -16.8 ± 1.6 | < 0.03 |
| N#Cc1ccc(S(=O)(=O)N2CC3=C(CN([C@H]4CO[C@H](c5cc(F)ccc5F)[C@@H](N)C4)C3)C2)cc1 [Compound 34, 4-((5-((3R,5S,6R)-5-amino-6-(2,5-difluorophenyl)tetrahydro-2H-pyran-3-yl)-5,6-dihydropyrrolo[3,4-c]pyrrol-2(1H,3H,4H)-yl)sulfonyl)benzonitrile] | -30.1 ± 3.4 | < 0.01 |
| N[C@H]1C[C@@H](N2CC3=C(C2)CN(S(=O)(=O)c2ccc(OC(F)(F)F)cc2)C3)CO[C@@H]1c1cc(F)ccc1F [Compound 35, (2R,3S,5R)-2-(2,5-difluorophenyl)-5-(5-((4-(trifluoromethoxy)phenyl)sulfonyl)-5,6-dihydropyrrolo[3,4-c]pyrrol-2(1H,3H,4H)-yl)tetrahydro-2H-pyran-3-amine] | -20.5 ± 3.8 | < 0.03 |
| N[C@H]1C[C@@H](N2CC3=C(C2)CN(S(=O)(=O)c2ccc(F)cc2F)C3)CO[C@@H]1c1cc(F)ccc1F [Compound 36, (2R,3S,5R)-2-(2,5-difluorophenyl)-5-(5-((2,4-difluorophenyl)sulfonyl)-5,6-dihydropyrrolo[3,4-c]pyrrol-2(1H,3H,4H)-yl)tetrahydro-2H-pyran-3-amine] | -22.2 ± 2.5 | < 0.01 |
| Cc1ccc(S(=O)(=O)N2CC3=C(CN([C@H]4CO[C@H](c5cc(F)ccc5F)[C@@H](N)C4)C3)C2)cc1 [Compound 37, (2R,3S,5R)-2-(2,5-difluorophenyl)-5-(5-tosyl-5,6-dihydropyrrolo[3,4-c]pyrrol-2(1H,3H,4H)-yl)tetrahydro-2H-pyran-3-amine] | -25.1 ± 3.2 | < 0.03 |
| COc1ccc(S(=O)(=O)N2CC3=C(CN([C@H]4CO[C@H](c5cc(F)ccc5F)[C@@H](N)C4)C3)C2)cc1 [Compound 38, (2R,3S,5R)-2-(2,5-difluorophenyl)-5-(5-((4-methoxyphenyl)sulfonyl)-5,6-dihydropyrrolo[3,4-c]pyrrol-2(1H,3H,4H)-yl)tetrahydro-2H-pyran-3-amine] | -22 ± 2.6 | < 0.01 |
| CC(C)c1ccc(S(=O)(=O)N2CC3=C(CN([C@H]4CO[C@H](c5cc(F)ccc5F)[C@@H](N)C4)C3)C2)cc1 [Compound 39, (2R,3S,5R)-2-(2,5-difluorophenyl)-5-(5-((4-isopropylphenyl)sulfonyl)-5,6-dihydropyrrolo[3,4-c]pyrrol-2(1H,3H,4H)-yl)tetrahydro-2H-pyran-3-amine] | -25.1 ± 3.6 | < 0.01 |
| N[C@H]1C[C@@H](N2CC3=C(C2)CN(S(=O)(=O)c2ccc(C(F)(F)F)cc2)C3)CO[C@@H]1c1cc(F)ccc1F [Compound 40, (2R,3S,5R)-2-(2,5-difluorophenyl)-5-(5-((4-(trifluoromethyl)phenyl)sulfonyl)-5,6-dihydropyrrolo[3,4-c]pyrrol-2(1H,3H,4H)-yl)tetrahydro-2H-pyran-3-amine] | -14 ± 1.5 | < 0.03 |
| CC(=O)N1CC2=C(C1)CN([C@H]1CO[C@H](c3cc(F)ccc3F)[C@@H](N)C1)C2 [Compound 41, (2R,3S,5R)-5-(5-acetyl-5,6-dihydropyrrolo[3,4-c]pyrrol-2(1H,3H,4H)-yl)-2-(2,5-difluorophenyl)tetrahydro-2H-pyran-3-amine] | -6.04 ± 2.6 | < 0.1 |
| CC(C)CS(=O)(=O)N1CC2=C(CN([C@H]3CO[C@H](c4cc(F)ccc4F)[C@@H](N)C3)C2)C1 [Compound 42, (2R,3S,5R)-2-(2,5-difluorophenyl)-5-(5-(isobutylsulfonyl)-5,6-dihydropyrrolo[3,4-c]pyrrol-2(1H,3H,4H)-yl)tetrahydro-2H-pyran-3-amine] | -25.1 ± 2.8 | < 0.03 |
| N[C@H]1C[C@@H](N2CC3CS(=O)(=O)CC3C2)CO[C@@H]1c1cc(F)ccc1F (stereo partly drawn) [Compound 43, 5-((3R,5S,6R)-5-amino-6-(2,5-difluorophenyl)tetrahydro-2H-pyran-3-yl)hexahydro-1H-thieno[3,4-c]pyrrole 2,2-dioxide] | -15.5 ± 3.6 | < 0.03 |
| N[C@H]1C[C@@H](N2CC3=C(CNC3)C2)CO[C@@H]1c1cc(F)ccc1F [Compound 44, (2R,3S,5R)-2-(2,5-difluorophenyl)-5-(5,6-dihydropyrrolo[3,4-c]pyrrol-2(1H,3H,4H)-yl)tetrahydro-2H-pyran-3-amine] | -12.5 ± 1.5 | < 0.03 |
